These results are taken from ChEMBL document CHEMBL1142399, “Water-soluble pleuromutilin derivative with excellent in vitro and in vivo antibacterial activity against gram-positive pathogens” (J Med Chem, 2008).

Test [1] has as its system Atopobium parvulum. As to the kind of experiment: Antibacterial activity against Atopobium parvulum GAI 5542 by broth microdilution method. In kind it is functional. The note with it: Lancefieldella parvula. (Broth dilution looks for growth in wells or tubes with falling amounts of substance.)
Test [2] has as its system Cutibacterium acnes. As to the kind of experiment: Antibacterial activity against Propionibacterium acnes GAI 5568 by broth microdilution method. In kind it is functional.
Test [3] concerns Peptoniphilus asaccharolyticus. The experiment in a line: Antibacterial activity against Peptostreptococcus asaccharolyticus GAI 5534 by broth microdilution method. In kind it is functional.
The subject of test [4] is Staphylococcus saccharolyticus. As to the kind of experiment: Antibacterial activity against Staphylococcus saccharolyticus GAI 5520 by broth microdilution method. It is filed as functional.
The test system of test [5] is Clostridium perfringens. The experiment in a line: Antibacterial activity against Clostridium perfringens GAI 5526 by broth microdilution method. It is filed as functional.
Test [6] relates to Peptostreptococcus anaerobius. The experiment in a line: Antibacterial activity against Peptostreptococcus anaerobius GAI 5506 by broth microdilution method. In kind it is functional.
In test [7] the test system is Finegoldia magna. The experiment in a line: Antibacterial activity against Peptostreptococcus magnus GAI 5528 by broth microdilution method. It is filed as functional.
The subject of test [8] is Propionibacterium granulosum. As to the kind of experiment: Antibacterial activity against Propionibacterium granulosum GAI 7414 by broth microdilution method. In kind it is functional. The note with it: Cutibacterium granulosum.
Test [9] deals with Streptococcus intermedius. The experiment in a line: Antibacterial activity against Streptococcus intermedius GAI 7416 by broth microdilution method. In kind it is functional.
The subject of test [10] is Staphylococcus aureus. As to the kind of experiment: microbe, parasite or virus in culture.
The subject of test [11] is Streptococcus pneumoniae. The experiment in a line: microbe, parasite or virus in culture. The note with it: ATCC 49619.
In test [12] the test system is Staphylococcus aureus. As to the kind of experiment: microbe, parasite or virus in culture. The source holds these as a separate data set.
In test [13] the test system is Moraxella catarrhalis. As to the kind of experiment: Antibacterial activity against Moraxella catarrhalis K1209 by broth microdilution method. It is filed as functional.
The subject of test [14] is Staphylococcus epidermidis. The experiment in a line: Antibacterial activity against Staphylococcus epidermidis ATCC 12228 by broth microdilution method. It is filed as functional.
Test [15] has as its system Staphylococcus aureus. As to the kind of experiment: Antibacterial activity against methicillin-susceptible Staphylococcus aureus Smith in mouse dosed twice iv 1 hr and 4 hrs after infection. In kind it is functional.
Test [16] has as its system Streptococcus pneumoniae. The experiment in a line: Antibacterial activity against penicillin-susceptible Streptococcus pneumoniae ATCC 49619 in mouse dosed twice iv 1 hr and 4 hrs after infection. In kind it is functional. Conditions: ATCC 49619, iv.
The subject of test [17] is Streptococcus pneumoniae. As to the kind of experiment: Antibacterial activity against penicillin-resistant Streptococcus pneumoniae KT2524 in mouse dosed twice iv 1 hr and 4 hrs after infection. In kind it is functional.
Test [18] concerns Staphylococcus aureus. As to the kind of experiment: microbe, parasite or virus in culture. Conditions: KMP9.
The test system of test [19] is Streptococcus pyogenes. The experiment in a line: Antibacterial activity against Streptococcus pyogenes ATCC 12344 by broth microdilution method. In kind it is functional.
Test [20] concerns Haemophilus influenzae. The experiment in a line: Antibacterial activity against Haemophilus influenzae TH13 by broth microdilution method. It is filed as functional.
The test system of test [21] is Staphylococcus aureus. The experiment in a line: Antibacterial activity against methicillin-susceptible Staphylococcus aureus Smith in po dosed mouse twice daily. It is filed as functional.
The test system of test [22] is Staphylococcus aureus. As to the kind of experiment: microbe, parasite or virus in culture. The note with it: Smith.
The subject of test [23] is Enterococcus faecium. The experiment in a line: microbe, parasite or virus in culture. The note with it: ATCC 19434.
Test [24] has as its system Enterococcus faecalis. As to the kind of experiment: microbe, parasite or virus in culture. Conditions: ATCC 29212.
Test [25] relates to Enterococcus faecium. As to the kind of experiment: Antibacterial activity against vancomycin-resistant Enterococcus faecium KU1778 clinical isolate by broth microdilution method. It is filed as functional.
The test system of test [26] is Streptococcus pneumoniae. As to the kind of experiment: microbe, parasite or virus in culture.
For test [27], the system named is Staphylococcus aureus. The experiment in a line: Antibacterial activity against methicillin-resistant Staphylococcus aureus KT0116 in mouse dosed twice iv 1 hr and 4 hrs after infection. In kind it is functional.
Test [28] has as its system Streptococcus pneumoniae. As to the kind of experiment: Antibacterial activity against penicillin-resistant Streptococcus pneumoniae KT2524 in mouse dosed iv 1 hr after infection. It is filed as functional.
In test [29] the test system is Staphylococcus aureus. The experiment in a line: Antibacterial activity against methicillin-susceptible Staphylococcus aureus Smith in mouse dosed iv 1 hr after infection. In kind it is functional.
The test system of test [30] is Streptococcus pneumoniae. The experiment in a line: Antibacterial activity against penicillin-susceptible Streptococcus pneumoniae ATCC 49619 in mouse dosed iv 1 hr after infection. It is filed as functional. The note with it: ATCC 49619, iv.
For test [31], the system named is Staphylococcus aureus. The experiment in a line: Antibacterial activity against methicillin-resistant Staphylococcus aureus KT0116 in mouse dosed iv 1 hr after infection. It is filed as functional.
Test [32] concerns Mycoplasmoides pneumoniae. The experiment in a line: Antibacterial activity against Mycoplasma pneumoniae FH Liu by broth microdilution method. It is filed as functional.
Test [33] concerns Mycoplasmoides pneumoniae. The experiment in a line: Antibacterial activity against Mycoplasma pneumoniae Mac by broth microdilution method. In kind it is functional.

Converted amounts (≈) assume the structure as drawn.

Consider `CC1(C)S[C@@H]2[C@H](NC(=O)[C@H](N)c3ccccc3)C(=O)N2[C@H]1C(=O)O` [AMPICILLIN], for which the MIC in test [1] amounted to 0.125 µg/mL (≈ 0.358 µM); in test [2], 0.125 µg/mL (≈ 0.358 µM); in test [3] it was 0.25 µg/mL (≈ 0.715 µM); in [4], 0.008 µg/mL (≈ 0.0229 µM); in test [5], 0.063 µg/mL (≈ 0.18 µM); in [6], 0.125 µg/mL (≈ 0.358 µM). Besides, the MIC in [7] turned out to be 0.25 µg/mL (≈ 0.715 µM); in test [8], 0.063 µg/mL (≈ 0.18 µM); in test [9], 0.125 µg/mL (≈ 0.358 µM).

What is called ED50 is the dose that gives a 50% effect, or the effect in half of the subjects. `CC[C@]1(C)C[C@@H](OC(=O)CSc2nnc(N)[nH]2)[C@]2(C)[C@H](C)CC[C@]3(CCC(=O)[C@H]32)[C@@H](C)[C@@H]1O` [AZAMULIN]: the MIC came to 0.25 µg/mL (≈ 0.522 µM) in test [10]; 0.5 µg/mL (≈ 1.04 µM) in [11]; 1 µg/mL (≈ 2.09 µM) in test [12]; 0.032 µg/mL (≈ 0.0669 µM) in test [13]; 0.25 µg/mL (≈ 0.522 µM) in test [14]; 2 µg/mL (≈ 4.18 µM) in [18]. The MIC in [19] is 0.25 µg/mL (≈ 0.522 µM); in test [20], 0.5 µg/mL (≈ 1.04 µM); in [22] it was 0.5 µg/mL (≈ 1.04 µM); in test [23], 0.5 µg/mL (≈ 1.04 µM); in test [24], 128 µg/mL (≈ 267 µM); in test [25], 0.25 µg/mL (≈ 0.522 µM). Also, the MIC in test [26] turned out to be 0.5 µg/mL (≈ 1.04 µM). The 50% effective dose (ED50) in test [15] came to 6.88 mg/kg; in [16], 12.9 mg/kg; in [17] it was 17.7 mg/kg; in test [21], 13.3 mg/kg; in test [27] it was 5.2 mg/kg.

In the case of `CO/N=C(\C(=O)N[C@@H]1C(=O)N2C(C(=O)O)=C(CSc3nc(=O)c(O)nn3C)CS[C@H]12)c1csc(N)n1` [CEFTRIAXONE], the MIC was 2 µg/mL (≈ 3.61 µM) in test [10]; 0.063 µg/mL (≈ 0.114 µM) in [11]; greater than 128 µg/mL in test [12]; 0.25 µg/mL (≈ 0.451 µM) in test [13]; 2 µg/mL (≈ 3.61 µM) in [14]; greater than 128 µg/mL in test [18]. Moreover, the MIC in test [19] was 0.016 µg/mL (≈ 0.0289 µM); in test [20] it was 0.008 µg/mL (≈ 0.0144 µM); in [22] it was 2 µg/mL (≈ 3.61 µM); in test [23], 4 µg/mL (≈ 7.21 µM); in test [24] it was 4 µg/mL (≈ 7.21 µM); in [25], greater than 128 µg/mL. Further, in test [26], the MIC amounted to 0.5 µg/mL (≈ 0.902 µM). The ED50 is 27.5 mg/kg in test [28], 3.72 mg/kg in [29], 0.22 mg/kg in [30] and greater than 100 mg/kg in [31].

For the molecule `CC[C@H]1OC(=O)[C@H](C)[C@@H](O[C@H]2C[C@@](C)(OC)[C@@H](O)[C@H](C)O2)[C@H](C)[C@@H](O[C@@H]2O[C@H](C)C[C@H](N(C)C)[C@H]2O)[C@](C)(OC)C[C@@H](C)C(=O)[C@H](C)[C@@H](O)[C@]1(C)O` [CLARITHROMYCIN], the MIC in test [1] was less than 0.004 µg/mL; in test [2] it was less than 0.004 µg/mL; in [3], greater than 128 µg/mL; in test [4] it was 0.063 µg/mL (≈ 0.0842 µM); in test [32], 0.016 µg/mL (≈ 0.0214 µM); in test [5], 1 µg/mL (≈ 1.34 µM). Besides, the MIC is less than 0.004 µg/mL in test [6]; 2 µg/mL (≈ 2.67 µM) in test [7]; less than 0.004 µg/mL in test [8]; 0.016 µg/mL (≈ 0.0214 µM) in test [33]; less than 0.004 µg/mL in test [9].
